# Results from PMC10850561, “Eutypellaolides A–J, Sesquiterpene diversity expansion of the polar fungus Eutypella sp. D-1” (Frontiers in Microbiology, 2024).
# Biological target: T1, PTP1B (Homo sapiens, UniProt P18031)
# T1 construct: gene PTPN1
# T1 sequence (P18031 1-435): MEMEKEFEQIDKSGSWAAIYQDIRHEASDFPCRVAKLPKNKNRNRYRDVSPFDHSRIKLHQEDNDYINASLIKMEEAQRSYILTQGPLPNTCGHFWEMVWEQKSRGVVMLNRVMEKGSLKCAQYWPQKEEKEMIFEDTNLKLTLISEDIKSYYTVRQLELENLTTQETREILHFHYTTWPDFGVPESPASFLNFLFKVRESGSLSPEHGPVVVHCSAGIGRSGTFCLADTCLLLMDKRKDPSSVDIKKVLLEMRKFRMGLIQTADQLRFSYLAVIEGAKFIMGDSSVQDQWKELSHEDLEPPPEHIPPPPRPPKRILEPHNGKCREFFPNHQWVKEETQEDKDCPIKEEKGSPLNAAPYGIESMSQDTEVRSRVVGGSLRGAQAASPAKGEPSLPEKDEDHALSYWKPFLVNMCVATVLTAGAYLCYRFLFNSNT
# Assay: PTP1B enzyme inhibition assay in 96-well microplates
# Format: biochemical
row,Structure (SMILES),IC50
1,"CO[C@]1(C)C2=CC3=C(CO)C(=O)OC3=C[C@]2(C)CC[C@@H]1O [compound 5, Eutypellaolide E]",44.8 µM
2,"CC1=CCC[C@@H]2CC3=C(CO)C(=O)OC3=CC12C (stereo partly drawn) [compound 11, eut-Guaiane]",43.2 µM
3,"CC1=CC(=O)C[C@@]2(C)C=C3OC(=O)C(CO)=C3C=C12 [compound 14, 2-one-13hydroxy-3,5,8,7(11)-eudesmatetraen-12,8-olide]",49.5 µM
